# Laboratory results from US11684675B2, “Dimeric collagen hybridizing peptides and methods of using” (University of Utah Research Foundation, priority 2015, dated 2023).
# Columns and labels:
# [1] = system: crosslinked gelatin films; test: Retention of CF-labelled CHPs in crosslinked gelatin films (bound at 4° C., washed at 25° C./r.t.); format: binding, porcine; settings: Example 2, washes at 4° C. then 25° C.
# Description: (A) Fraction of peptide remaining in a crosslinked gelatin film after 17 h at 25° C. (10 total washes). Values are normalized to fluorescence remaining in wells after 6 washes at 4° C. (>95% removal of CHPs 9r, 6r, and 5r). All washes performed in 1×PBS. (B) CHPs (15 μM) premixed into 10% porcine gelatin and preheated to 80° C. (10 min) before being added to a 96 well plate. Excess CHP-gelatin mixture was removed, then the premix was incubated at 4° C. for 2 hours. Wells were washed at 4° C., 5 times (>95% removal of CHPs 9r, 6r, and 5r). Wells were then washed for 2 hours (6 washes total) at 25° C. to monitor CHP remaining in the well. (C) Fluorescence of CHPs remaining in crosslinked gelatin after incubation at 37° C. overnight without preheating, followed by washing with 1×PBS at 37° C. (20 h). (D) Fluorescence of CHPs remaining in crosslinked gelatin after incubation at 37° C. overnight (80° C. preheating, 10 min), followed by washing with 1×PBS at 37° C. (20 h).
# Binding to Gelatin films. Peptide solutions (20 μM in PBS) were preheated to 80° C. for 10 minutes before being added directly to the crosslinked gelatin films. Peptides were allowed to fully equilibrate with the gel at 4° C. overnight before being exposed to repeated washes (4×30 min) at 4° to fully remove any non-specifically bound peptide. Gelatin wells were then washed at r.t. with PBS (5×1 h, lx 12 h) to measure retention within the gelatin films. […] To eliminate the possibility of these peptides merely becoming physically entrapped within the gelatin after forming triple helix or forming triple helix before binding, binding affinity was verified by producing a premix of the CHPs and Gelatin to eliminated diffusion-limited binding before washing the wells in a similar manner.
# Fluorescence Binding: CHP binding to gelatin was monitored by conjugating a fluorescent Carboxyfluorescein (CF) molecule to the N-terminus of each peptide via standard SPPS. Solutions of the fluorescent peptides were heated to 80° C. for 5 min before injecting 50 μL onto a pre-prepared EDC-crosslinked thin gelatin film in a 96 well plate. Peptides incubated overnight at 4° C., then washed with repeated rounds of 4° C. 1×PBS followed by 25° C. 1×PBS.
# porcine gelatin = test: SPR gelatin capture by immobilized biotinylated CHPs; format: binding; settings: gelatin 25 μg/mL
# Description: FIGS. 7A and 7B show SPR data for porcine gelatin capture by immobilized CHPs. […] Gelatin was applied to the sensor surface during the association phase, followed by elution with blank during dissociation phase. Association occurred for 981 s, followed by dissociation for 1800 s. Values were normalized to a 100% biotin lane, and were adjusted to the mass of peptide immobilized in each well. (A) Preheated (80° C., 10 min), quenched (0° C., 30 s) gelatin (25 μg/mL) was applied to the sensor at an ambient temperature of 37° C. (B) Preheated (80° C., 10 min), quenched (0° C., 30 s) gelatin (25 μg/mL) was applied to the sensor at an ambient temperature of 15° C.
# Surface Plasmon Resonance (SPR). […] However, there were major differences observed during the association phase. At 37° C., there was a much higher amount of gelatin adsorbed to all the peptides tested on the surface when compared to 15° C. […] At 15° C., gelatin adsorbed to the surface at a much slower rate. […] However, this lower adsorption rate can be due to a reduced diffusion rate near the surface or a more condensed gelatin structure at this lower temperature.
# Dimeric CHP is able to hybridize effectively with denatured collagens with faster folding kinetics than current, monomeric CHPs. Surface plasmon resonance (SPR) was used to measure the ability of the CHPs to trap denatured collagen from solution.
# [2] = Triple helix melting point (Tm) by circular dichroism at 225 nm; format: physicochemical; settings: for Tm (° C.): triple helix melting
# Description: FIGS. 5A, 5B, 5C, and 5D show the thermal denaturation of fully assembled CHPs and subsequent cooling to initial temperature. Samples were heated at 1° C./min from their initial temperature final temperature of 90° C. Sample was then cooled at 1° C./min to the starting temperature. (A) Thermal denaturation and partial reassembly of CHP CF-6d (150 μM) monitored at 225 nm. Sample was measured from 4° C. to 90° C. (B) Thermal denaturation and partial reassembly of CHP […] (75 μM, corresponding to 150 μM strand concentration) monitored at 225 nm. Sample was measured from 4° C. to 90° C. (C) Thermal denaturation and partial reassembly of CHP CF-9 (150 μM) monitored at 225 nm. Sample was measured from 10° C. to 90° C. (D) Thermal denaturation and partial reassembly of CHP CF-9d (75 μM, corresponding to 150 μM strand concentration) monitored at 225 nm. Sample was measured from 10° C. to 90° C.
# FIGS. 11A and 11B show the First Derivative of mean residue ellipticity (MRE) at 225 nm in CD. […] There is no significant change in melting point between the monomeric and dimeric forms of the same peptide.
# Circular Dichroism: Circular Dichroism (CD) was measured for all peptides at 225 nm. Melting curves were taken on peptides between 10 and 80° C. at a heating rate of 0.5° C./min, with pauses at each 1° C. Refolding experiments were performed after peptide solutions were incubated at 4° C. for at least 12 hours. Concentrations were normalized to strand concentration.
substance,measurement,setting,value
[(GPO)6G3)2KG [6d],binding affinity to gelatin compared to monomeric form,[1],clear increase in binding affinity
same,ability to bind gelatin,porcine gelatin; 15° C.,only able to bind gelatin at a rate comparable to the monomeric CHPs
same,ability to bind gelatin,porcine gelatin; 37° C.,higher ability to bind gelatin than that of an equivalent number of strands in their monomeric counterparts
same,melting point,[2]; Example 3,38 °C
same,Tm (° C.),[2]; Table 1,38 (SEQ ID NO: 58) ° C.
same,Tm (° C.),[2]; Table 2,38 (SEQ ID NO: 58) ° C.
